Reference: patent US7816350B2, “Substituted [1,2,3] triazolo[4,5-D]pyrimidines as cdk inhibitors” (Institute of Experimental Botany ASCR, priority 2002, dated 2010)
pIC50: −log10 of the molar value.

Tests used:
p34^cdc2/cyclin B (CDC2) = target: T1, p34^cdc2/cyclin B (CDC2) (Homo sapiens, UniProt P06493); assay: CDK inhibition assay, p34cdc2/cyclin B kinase, histone H1 phosphorylation; type: biochemical
T1 construct: made in house; host or cells: Sf9 insect cells (baculovirus co-infection)
Description: Cyclin-dependent kinases (p34^cdc2, p33^cdk2) and cyclins (cyclin B, E) are produced in Sf9 insect cells coinfected with appropriate baculoviral constructs. The cells are harvested 68-72 hrs post infection in lysis buffer for 30 min on ice and the soluble fraction is recovered by centrifugation at 14.000 g for 10 min. The protein extract is stored at −80° C.
Lysis buffer: 50 mM Tris pH 7.4, 150 mM NaCl, 5 mM EDTA, 20 mM NaF, 1% Tween, 1 mM DTT, 0.1 mM PMSF, leupeptine, aprotonine.
To carry out experiments on kinetics under linear conditions, the final point test system for kinase activity measurement is used. The kinase is added to reaction mixture in such a way as to obtain linear activity with respect to the concentration of enzyme and with respect to time.
The p34^cdc2 and p33^cdk2 kinase inhibition determination involves the use of 1 mg/ml histone H1 (Sigma, type III-S) in the presence of 15 μM [γ-^32P]ATP ([…]) (Amersham) in a final volume of 20 μl. Kinase activity is determined at 30° C. in the kinase buffer.
Tested compounds are usually dissolved to 100 mM solutions in DMSO, final concentration of DMSO in reaction mixture never exceeds 1%. The controls contain suitable dilutions of DMSO.
After 10 min, addition 3×SDS sample buffer stops the incubations. Phosphorylated proteins are separated electrophoretically using 12.5% SDS polyacrylamide gel. The measurement of kinase activity is done using digital image analysis.
The kinase activity is expressed as a percentage of maximum activity, the apparent inhibition constants are determined by graphic analysis (FIG. 1).
Kinase buffer: 50 mM Hepes pH 7.4, 10 mM MgCl2, 5 mM EGTA, 10 mM 2-glycerolphosphate, 1 mM NaF, 1 mM DTT

IκB-α kinase = IκB-α kinase inhibitory activity, in vitro kinase assay; type: biochemical

T1 sequence (P06493 whole entry, species assumed): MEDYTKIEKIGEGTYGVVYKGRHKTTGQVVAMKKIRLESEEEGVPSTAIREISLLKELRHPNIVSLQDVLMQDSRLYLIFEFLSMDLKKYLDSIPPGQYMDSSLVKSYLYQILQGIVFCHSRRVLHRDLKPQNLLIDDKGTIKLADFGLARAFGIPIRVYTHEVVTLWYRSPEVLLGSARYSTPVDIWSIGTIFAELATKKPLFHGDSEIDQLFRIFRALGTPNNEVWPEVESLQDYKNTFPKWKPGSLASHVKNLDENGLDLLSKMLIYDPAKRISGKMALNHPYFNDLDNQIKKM
T1 sequence (P14635 whole entry partner, species assumed): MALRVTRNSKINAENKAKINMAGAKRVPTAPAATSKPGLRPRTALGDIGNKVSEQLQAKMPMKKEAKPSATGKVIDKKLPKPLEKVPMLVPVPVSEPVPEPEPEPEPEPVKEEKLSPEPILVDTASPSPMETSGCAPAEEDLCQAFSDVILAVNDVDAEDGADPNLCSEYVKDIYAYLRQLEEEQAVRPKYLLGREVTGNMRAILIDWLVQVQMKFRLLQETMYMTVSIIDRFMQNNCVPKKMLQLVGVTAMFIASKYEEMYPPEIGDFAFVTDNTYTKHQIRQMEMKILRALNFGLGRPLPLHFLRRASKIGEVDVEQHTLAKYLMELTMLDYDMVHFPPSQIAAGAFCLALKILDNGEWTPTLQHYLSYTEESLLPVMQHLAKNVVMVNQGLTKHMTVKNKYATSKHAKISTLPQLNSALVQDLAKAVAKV

| Structure (SMILES) | pIC50 (p34^cdc2/cyclin B (CDC2)) | pIC50 (IκB-α kinase) |
| --- | --- | --- |
| Cn1nnc2c(NCc3c(N)cccc3Cl)nc(NCCO)nc21 | 4.28 | 4.17 |
| CC[C@H](CO)Nc1nc(NCc2ccc(Cl)c(N)c2)c2nnn(C(C)C)c2n1 | 4.54 | < 4.00 |
| Cn1nnc2c(NCc3ccccc3O)nc(NCCO)nc21 | 4.64 | 4.35 |
| CC(=O)c1cccc(CNc2nc(NCCO)nc3c2nnn3C)c1 | 4.10 | < 4.00 |
| CC(C)[C@H](CO)Nc1nc(NCc2cccc(Cl)c2O)c2nnn(C(C)C)c2n1 | 4.49 | 4.22 |
| Cc1cccc(CNc2nc(NCCO)nc3c2nnn3C)c1O | 4.07 | < 4.00 |
| COc1cc(O)c(CNc2nc(NCCO)nc3c2nnn3C)cc1O | 4.66 | – |
| Cn1nnc2c(Nc3ccc(O)c(C(=O)O)c3)nc(NCCO)nc21 | 4.24 | < 4.00 |
| CC(C)[C@H](CO)Nc1nc(N(C)CCc2ccc(O)c(O)c2)c2nnn(C(C)C)c2n1 | – | < 4.00 |
| CCC(CO)Nc1nc(NC(CO)c2ccccc2)c2nnn(C(C)C)c2n1 (stereo not drawn) | – | < 4.00 |
| Cn1nnc2c(Nc3cc(N)cc(Cl)c3)nc(NCCO)nc21 | 4.30 | < 4.00 |
| CC[C@H](CO)Nc1nc(NCc2ccccc2OC(C)=O)c2nnn(C(C)C)c2n1 | 4.72 | < 4.00 |
| CC[C@H](CO)Nc1nc(N(C)CCc2ccc(O)c(O)c2)c2nnn(C(C)C)c2n1 | < 4.00 | < 4.00 |
| CC[C@H](CO)Nc1nc(Nc2cc(N)cc(Cl)c2)c2nnn(C(C)C)c2n1 | 4.55 | 4.12 |
| CC[C@H](CO)Nc1nc(NCc2ccccc2C(C)=O)c2nnn(C(C)C)c2n1 | 4.43 | < 4.00 |
| COc1cc(O)c(CNc2nc(NCCO)nc3c2nnn3C)c(O)c1 | 4.74 | – |
| CC[C@H](CO)Nc1nc(NCc2cccc(C)c2O)c2nnn(C(C)C)c2n1 | 4.47 | 4.10 |
| CC(C)[C@H](CO)Nc1nc(NC(CO)c2ccccc2)c2nnn(C(C)C)c2n1 (mixture of isomers) | 4.30 | < 4.00 |
| CC(C)[C@H](CO)Nc1nc(NCc2ccccc2)c2nnn(C(C)C)c2n1 | 4.82 | 4.30 |
| Cc1cccc(CNc2nc(N[C@@H](CO)C(C)C)nc3c2nnn3C(C)C)c1O | 4.74 | 4.26 |
| Cn1nnc2c(NCc3ccc(Cl)c(N)c3)nc(NCCO)nc21 | 4.30 | – |
| Cn1nnc2c(Nc3ccccc3)nc(NCCO)nc21 [2-hydroxyethylamino / anilino / methyl] | 4.38 | < 4.00 |

| Structure (SMILES) | pIC50 (p34^cdc2/cyclin B (CDC2)) | pIC50 (IκB-α kinase) |
| --- | --- | --- |
| Cn1nnc2c(Nc3ccc(Cl)c(N)c3)nc(NCCO)nc21 | < 4.00 | < 4.00 |
| CC[C@H](CO)Nc1nc(NCc2ccccc2)c2nnn(C)c2n1 | – | < 4.00 |
| CC(C)[C@H](CO)Nc1nc(NCc2cc(O)c(Cl)cc2O)c2nnn(C(C)C)c2n1 | 5.10 | < 4.00 |
| CC(C)[C@H](CO)Nc1nc(NCc2c(N)cccc2Cl)c2nnn(C(C)C)c2n1 | 5.00 | < 4.00 |
| CC(C)n1nnc2c(NCc3ccccc3)nc(NC3CCC(N)CC3)nc21 (stereo not drawn) | 5.43 | 4.32 |
| CC[C@H](CO)Nc1nc(NCc2c(N)cccc2Cl)c2nnn(C(C)C)c2n1 | 4.51 | < 4.00 |
| CC[C@H](CO)Nc1nc(Nc2ccc(Cl)cc2)c2nnn(C(C)C)c2n1 | 4.57 | – |
| CC[C@H](CO)Nc1nc(NCc2cccc(OC)c2O)c2nnn(C(C)C)c2n1 | 4.82 | 4.12 |
| CC[C@H](CO)Nc1nc(NCc2ccccc2)c2nnn(C(C)C)c2n1 [2-[1(R)-Hydroxymethylpropylamino]-6-benzylamino-9-isopropyl-8-azapurine] | – | < 4.00 |
| CC[C@H](CO)Nc1nc(NCc2cc(O)c(Cl)cc2O)c2nnn(C(C)C)c2n1 | 4.80 | < 4.00 |
| Cn1nnc2c(NCc3ccccc3)nc(NCCO)nc21 | < 4.00 | < 4.00 |
| Cn1nnc2c(NC(CO)c3ccccc3)nc(NCCO)nc21 (racemic) | 4.10 | < 4.00 |
| CC[C@H](CO)Nc1nc(NCc2ccc(O)c(O)c2)c2nnn(C(C)C)c2n1 | 4.40 | < 4.00 |
| CC[C@H](CO)Nc1nc(NCc2c(O)cc(OC)cc2O)c2nnn(C(C)C)c2n1 | 4.77 | < 4.00 |
| Cn1nnc2c(Nc3ccc(Cl)c(C(=O)O)c3)nc(NCCO)nc21 | 4.37 | < 4.00 |
| CCC(CO)Nc1nc(NCc2cccc(Cl)c2O)c2nnn(C(C)C)c2n1 (stereo not drawn) | 4.80 | – |
| CN(Cc1ccc(O)c(O)c1)c1nc(NCCO)nc2c1nnn2C | – | < 4.00 |
| CC(C)[C@H](CO)Nc1nc(NCc2ccc(O)c(O)c2)c2nnn(C(C)C)c2n1 | 4.70 | < 4.00 |
| CC(C)[C@H](CO)Nc1nc(NCc2ccc(Cl)c(O)c2O)c2nnn(C(C)C)c2n1 | 4.96 | < 4.00 |
| CC[C@H](CO)Nc1nc(Nc2ccc(N)c(Cl)c2)c2nnn(C(C)C)c2n1 | 4.30 | < 4.00 |
| CC[C@H](CO)Nc1nc(Nc2ccccc2)c2nnn(C(C)C)c2n1 | 4.54 | 4.15 |
| CC(C)[C@H](CO)Nc1nc(NCc2ccccc2)c2nnn(C)c2n1 | 4.30 | < 4.00 |

| Structure (SMILES) | pIC50 (p34^cdc2/cyclin B (CDC2)) | pIC50 (IκB-α kinase) |
| --- | --- | --- |
| CC(=O)Oc1cccc(CNc2nc(NCCO)nc3c2nnn3C)c1 | 4.32 | 4.30 |
| CC(C)[C@H](CO)Nc1nc(NCc2ccc(Cl)c(N)c2N)c2nnn(C(C)C)c2n1 | 4.47 | < 4.00 |
| CC(C)[C@H](CO)Nc1nc(NCc2c(O)cc(Cl)cc2O)c2nnn(C(C)C)c2n1 | 4.74 | – |
| Cn1nnc2c(NCc3ccc(O)c(O)c3)nc(NCCO)nc21 | – | < 4.00 |
| CC[C@H](CO)Nc1nc(Nc2ccc(C(=O)O)c(Cl)c2)c2nnn(C(C)C)c2n1 | 4.46 | 4.15 |
| CC[C@H](CO)Nc1nc(NCc2ccc(OC)c(O)c2O)c2nnn(C(C)C)c2n1 | 4.85 | < 4.00 |
| CC[C@H](CO)Nc1nc(Nc2ccc(Cl)c(C(=O)O)c2)c2nnn(C(C)C)c2n1 | 4.40 | < 4.00 |
| CC[C@H](CO)Nc1nc(NCc2cccc(C(C)=O)c2)c2nnn(C(C)C)c2n1 | 4.24 | < 4.00 |
| Cn1nnc2c(Nc3ccc(Br)cc3)nc(NCCO)nc21 | < 4.00 | < 4.00 |
| CC(C)n1nnc2c(NCc3ccccc3)nc(N(CCO)CCO)nc21 | 4.02 | < 4.00 |
| Cn1nnc2c(Nc3ccc(Cl)cc3)nc(NCCO)nc21 | < 4.00 | < 4.00 |
| CC(=O)Oc1ccccc1CNc1nc(NCCO)nc2c1nnn2C | 4.44 | 4.40 |
| COc1cc(O)c(CNc2nc(N[C@@H](CO)C(C)C)nc3c2nnn3C(C)C)c(O)c1 | 5.00 | < 4.00 |
| CC[C@H](CO)Nc1nc(NCc2cccc(OC(C)=O)c2)c2nnn(C(C)C)c2n1 | 4.62 | < 4.00 |
| Cn1nnc2c(Nc3ccc(C(=O)O)c(Cl)c3)nc(NCCO)nc21 | 4.28 | < 4.00 |
| Cn1nnc2c(NCc3ccccc3)nc(N(CCO)CCO)nc21 | – | < 4.00 |
| CC[C@H](CO)Nc1nc(NCc2c(O)cc(Cl)cc2O)c2nnn(C(C)C)c2n1 | 4.92 | – |
| Cn1nnc2c(Nc3cccc(Cl)c3)nc(NCCO)nc21 | – | < 4.00 |
| CC[C@H](CO)Nc1nc(N(C)Cc2ccc(O)c(O)c2)c2nnn(C(C)C)c2n1 | – | < 4.00 |
| CC(C)[C@H](CO)Nc1nc(Nc2ccc(C(=O)O)c(Cl)c2)c2nnn(C(C)C)c2n1 | 4.60 | – |
